Converted amounts (≈) assume the structure as drawn.
Key:
[1] = target: T1, Bile salt export pump (Homo sapiens, UniProt O95342); experiment: Inhibition of BSEP in cryopreserved sandwich-cultured human hepatocytes by measuring reduction in TCA biliary clearance using taurocholic acid as substrate; type: cell-based, Hepatocyte
[2] = Total AUClast in female C57BL/6J mouse lung at 30 mg/kg, po measured after 24 hrs by UPLC-MS/MS analysis; type: ADME, organism-based; settings: in vivo
[3] = Volume of distribution at steady state in female C57BL/6J mouse at 2 mg/kg, iv measured after 24 hrs by UPLC-MS/MS analysis; type: ADME, organism-based; settings: in vivo, read-out: Vdss
[4] = Unbound AUClast in female C57BL/6J mouse plasma at 30 mg/kg, po measured after 24 hrs by UPLC-MS/MS analysis; type: ADME, organism-based; settings: in vivo
[5] = Tlast in female C57BL/6J mouse lung at 30 mg/kg, po measured after 24 hrs by UPLC-MS/MS analysis; type: ADME, organism-based; settings: in vivo
[6] = Aqueous solubility of the compound at pH 7.4; type: physicochemical; settings: buffer
[7] = Half life in female C57BL/6J mouse at 2 mg/kg, iv measured after 24 hrs by UPLC-MS/MS analysis; type: ADME, organism-based; settings: in vivo
[8] = Metabolic stability in female C57BL/6J mouse liver microsomes assessed as intrinsic clearance measured per mg of protein at 0.5 uM measured upto 45 mins in presence of NADPH regenerating system by HPLC-MS/MS analysis; type: ADME, Microsome; settings: read-out: CLH
[9] = Total Cmax in female C57BL/6J mouse plasma at 30 mg/kg, po measured after 24 hrs by UPLC-MS/MS analysis; type: ADME, organism-based
[10] = Clearance in female C57BL/6J mouse at 2 mg/kg, iv measured after 24 hrs by UPLC-MS/MS analysis; type: ADME, organism-based; settings: in vivo
[11] = Tlast in female C57BL/6J mouse plasma at 30 mg/kg, po measured after 24 hrs by UPLC-MS/MS analysis; type: ADME, organism-based; settings: in vivo
[12] = Total AUClast in female C57BL/6J mouse plasma at 30 mg/kg, po measured after 24 hrs by UPLC-MS/MS analysis; type: ADME, organism-based; settings: in vivo
[13] = Lipophilicity, logD of compound at pH 7.4 by chromatographic hydrophobicity index method; type: physicochemical; settings: buffer
[14] = target: BSEP (Homo sapiens, UniProt O95342); experiment: (§1) Inhibition of BSEP in cryopreserved sandwich-cultured human hepatocytes by measuring reduction in TCA biliary clearance using taurocholic acid as substrate at 50 uM relative to control; type: cell-based, Hepatocyte; settings: cryopreserved sandwich-cultured hepatocytes, probe taurocholic acid
Chain of BSEP (O95342 whole entry): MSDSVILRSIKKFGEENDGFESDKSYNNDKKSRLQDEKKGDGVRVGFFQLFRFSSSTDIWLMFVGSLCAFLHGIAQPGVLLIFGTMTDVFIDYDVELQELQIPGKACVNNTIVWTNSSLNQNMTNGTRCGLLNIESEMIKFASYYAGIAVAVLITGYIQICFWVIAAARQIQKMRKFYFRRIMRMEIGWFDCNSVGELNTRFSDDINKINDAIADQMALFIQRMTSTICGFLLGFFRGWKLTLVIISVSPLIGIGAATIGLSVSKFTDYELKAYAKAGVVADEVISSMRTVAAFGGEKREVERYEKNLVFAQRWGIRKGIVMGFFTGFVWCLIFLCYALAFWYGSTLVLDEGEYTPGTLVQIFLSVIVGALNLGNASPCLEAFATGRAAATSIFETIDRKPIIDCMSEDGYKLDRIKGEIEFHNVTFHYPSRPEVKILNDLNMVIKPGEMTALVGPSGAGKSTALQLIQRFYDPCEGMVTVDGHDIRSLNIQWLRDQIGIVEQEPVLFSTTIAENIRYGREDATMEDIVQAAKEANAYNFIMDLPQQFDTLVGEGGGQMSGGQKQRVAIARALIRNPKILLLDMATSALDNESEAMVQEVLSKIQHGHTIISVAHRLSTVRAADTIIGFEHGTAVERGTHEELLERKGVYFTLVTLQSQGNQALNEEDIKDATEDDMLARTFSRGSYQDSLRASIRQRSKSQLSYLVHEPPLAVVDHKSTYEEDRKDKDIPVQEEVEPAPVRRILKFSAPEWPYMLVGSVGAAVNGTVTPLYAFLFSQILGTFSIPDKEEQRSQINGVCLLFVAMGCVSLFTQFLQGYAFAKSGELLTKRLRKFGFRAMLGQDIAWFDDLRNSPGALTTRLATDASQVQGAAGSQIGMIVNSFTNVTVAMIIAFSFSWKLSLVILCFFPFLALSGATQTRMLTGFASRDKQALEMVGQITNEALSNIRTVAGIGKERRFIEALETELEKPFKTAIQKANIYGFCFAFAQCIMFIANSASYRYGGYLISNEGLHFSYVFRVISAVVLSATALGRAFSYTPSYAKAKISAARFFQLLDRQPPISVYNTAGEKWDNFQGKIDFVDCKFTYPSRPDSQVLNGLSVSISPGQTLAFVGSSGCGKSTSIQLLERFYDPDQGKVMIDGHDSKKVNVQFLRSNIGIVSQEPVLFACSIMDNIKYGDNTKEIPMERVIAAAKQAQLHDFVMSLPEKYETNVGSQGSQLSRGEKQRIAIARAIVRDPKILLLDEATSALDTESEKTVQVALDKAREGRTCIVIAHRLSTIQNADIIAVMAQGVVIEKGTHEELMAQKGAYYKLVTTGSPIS

[15] = target: Lysophosphatidic acid receptor 1 (Mus musculus, UniProt P61793); experiment: Antagonist activity at mouse LPA1 transfected in human HeLa cells incubated for 30 mins by FLIPR-based calcium mobilization assay; type: cell-based
Chain of Lysophosphatidic acid receptor 1 (P61793 whole entry): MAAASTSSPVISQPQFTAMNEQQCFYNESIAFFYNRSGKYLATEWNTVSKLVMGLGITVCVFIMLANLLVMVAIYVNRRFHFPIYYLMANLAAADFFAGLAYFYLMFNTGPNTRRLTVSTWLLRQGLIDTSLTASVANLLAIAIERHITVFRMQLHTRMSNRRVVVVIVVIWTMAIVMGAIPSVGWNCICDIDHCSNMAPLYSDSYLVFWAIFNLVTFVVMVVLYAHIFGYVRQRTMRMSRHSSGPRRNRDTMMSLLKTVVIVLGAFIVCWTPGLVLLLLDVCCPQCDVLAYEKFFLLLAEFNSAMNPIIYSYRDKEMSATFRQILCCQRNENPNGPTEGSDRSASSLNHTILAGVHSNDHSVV

[16] = Total Cmax in female C57BL/6J mouse lung at 30 mg/kg, po measured after 24 hrs by UPLC-MS/MS analysis; type: ADME, organism-based
[17] = Metabolic stability in human liver microsomes assessed as intrinsic clearance measured per mg of protein at 0.5 uM measured upto 45 mins in presence of NADPH regenerating system by HPLC-MS/MS analysis; type: ADME, Microsome; settings: read-out: CLH
[18] = Unbound AUClast in female C57BL/6J mouse lung at 30 mg/kg, po measured after 24 hrs by UPLC-MS/MS analysis; type: ADME, organism-based; settings: in vivo
[19] = Unbound Cmax in female C57BL/6J mouse lung at 30 mg/kg, po measured after 24 hrs by UPLC-MS/MS analysis; type: ADME, organism-based; settings: in vivo
[20] = Oral bioavailability in female C57BL/6J mouse at 2 mg/kg, iv measured after 24 hrs by UPLC-MS/MS analysis; type: ADME, organism-based; settings: in vivo
[21] = Unbound Cmax in female C57BL/6J mouse plasma at 30 mg/kg, po measured after 24 hrs by UPLC-MS/MS analysis; type: ADME, organism-based; settings: in vivo
[22] = tested on: Mus musculus; experiment: Inhibition of LPA-stimulated histamine release in male CD1 mouse plasma assessed as effective dose administered as po dose pretreated for 30 mins followed by LPA addition measured after 2 mins by enzyme immunoassay; type: functional; settings: 32 min
[23] = target: T1, Bile salt export pump; experiment: as §1; type: cell-based, Hepatocyte; settings: hepatocytes, 50 µM
[24] = Drug uptake in mouse lung at 30 mg/kg, po measured upto 24 hrs; type: ADME, organism-based; settings: in vivo

T1 sequence (O95342 whole entry): as the sequence (O95342 whole entry) above

Compound: Cc1nc(-c2cnn(C)c2NC(=O)O[C@H](C)c2ccccc2Cl)ccc1NC(=O)[C@H]1CCCC[C@@H]1C(=O)O
- IC50 [1]: > 100 µM
- AUClast [2]: 17100 h/ng/mL
- Vd [3]: 0.35 L/kg
- fAUClast [4]: 2621 h/ng/mL
- Tlast [5]: 8 h
- solubility [6]: 295 µM (≈ 159 µg/mL)
- half-life [7]: 149 min
- microsomal CLint at 0.5 µM [8]: < 2 µL/min/mg
- Cmax [9]: 54.2 µg/mL
- clearance [10]: 2.99 mL/min/kg
- Tlast [11]: 8 h
- AUClast [12]: 80800 h/ng/mL
- chromatographic logD [13]: 1.12
- inhibition at 50 µM [14]: 28%
- IC50 [15]: 25.1 nM
- Cmax [16]: 7950 ng/mL
- microsomal CLint at 0.5 µM [17]: 7 µL/min/mg
- fAUClast [18]: 1071 h/ng/mL
- fCmax [19]: 498 ng/mL
- bioavailability [20]: 49%
- fCmax [21]: 1758 ng/mL

Compound: Cc1nc(-c2onc(C)c2CNC(=O)O[C@H](C)c2ccccc2Cl)ccc1NC(=O)[C@H]1CCCC[C@@H]1C(=O)O
- solubility [6]: 525 µM (≈ 292 µg/mL)
- microsomal CLint at 0.5 µM [8]: 11.8 µL/min/mg
- chromatographic logD [13]: 1.69
- inhibition at 50 µM [14]: 82%
- microsomal CLint at 0.5 µM [17]: 7 µL/min/mg

Compound: Cc1noc(-c2ccc(NC(=O)[C@H]3CCCC[C@@H]3C(=O)O)cn2)c1NC(=O)O[C@H](C)c1ccccc1Cl
- IC50 [1]: 50.1 µM
- AUClast [2]: 8000 h/ng/mL
- Vd [3]: 0.24 L/kg
- fAUClast [4]: 1249 h/ng/mL
- Tlast [5]: 8 h
- solubility [6]: 458 µM (≈ 242 µg/mL)
- half-life [7]: 41.4 min
- microsomal CLint at 0.5 µM [8]: 4 µL/min/mg
- Cmax [9]: 26.5 µg/mL
- clearance [10]: 6.96 mL/min/kg
- Tlast [11]: 24 h
- ED50 [22]: 0.1 mg/kg
- AUClast [12]: 44200 h/ng/mL
- chromatographic logD [13]: 1.52
- inhibition at 50 µM [14]: 50%
- IC50 [15]: 31.6 nM
- Cmax [16]: 4230 ng/mL
- microsomal CLint at 0.5 µM [17]: 6.3 µL/min/mg
- fAUClast [18]: 262 h/ng/mL
- fCmax [19]: 139 ng/mL
- bioavailability [20]: 66%
- fCmax [21]: 749 ng/mL

Compound: CCC[C@@H](C)OC(=O)Nc1c(C)noc1-c1ccc(NC(=O)[C@H]2CCCC[C@@H]2C(=O)O)c(C)n1
- solubility [6]: 519 µM (≈ 245 µg/mL)
- microsomal CLint at 0.5 µM [8]: 3.7 µL/min/mg
- chromatographic logD [13]: 1.36
- inhibition at 50 µM [14]: 48%
- microsomal CLint at 0.5 µM [17]: 3.1 µL/min/mg

Compound: Cc1nc(-c2onc(C)c2Nc2cncc(C3CC3)n2)ccc1NC(=O)[C@H]1CCCC[C@@H]1C(=O)O
- inhibition (INH) [23]: Not_active

Compound: CCOc1cncc(Nc2c(C)noc2-c2ccc(NC(=O)[C@H]3CCCC[C@@H]3C(=O)O)c(C)n2)n1
- inhibition (INH) [23]: Not_active

Compound: Cc1nc(-c2onc(C)c2Nc2cncc(OC(C)C)n2)ccc1NC(=O)[C@H]1CCCC[C@@H]1C(=O)O
- IC50 [1]: > 100 µM
- AUClast [2]: 24800 h/ng/mL
- Vd [3]: 0.16 L/kg
- fAUClast [4]: 3105 h/ng/mL
- Tlast [5]: 8 h
- solubility [6]: 644 µM (≈ 318 µg/mL)
- half-life [7]: 118 min
- microsomal CLint at 0.5 µM [8]: 11 µL/min/mg
- Cmax [9]: 60.6 µg/mL
- clearance [10]: 2.05 mL/min/kg
- Tlast [11]: 8 h
- AUClast [12]: 109000 h/ng/mL
- chromatographic logD [13]: 0.86
- inhibition at 50 µM [14]: 18%
- IC50 [15]: 39.8 nM
- Cmax [16]: 10300 ng/mL
- microsomal CLint at 0.5 µM [17]: < 2 µL/min/mg
- fAUClast [18]: 3846 h/ng/mL
- fCmax [19]: 1597 ng/mL
- bioavailability [20]: 45%
- fCmax [21]: 1726 ng/mL

Compound: Cc1noc(-c2ccc(NC(=O)[C@@H]3CCCC[C@H]3C(=O)O)cc2)c1NC(=O)O[C@H](C)c1ccccc1Cl
- inhibition at 50 µM [14]: 66%

Compound: Cc1cc(NC(=O)[C@H]2CCCC[C@@H]2C(=O)O)c(C)nc1-c1onc(C)c1NC(=O)O[C@H](C)c1ccccc1Cl
- solubility [6]: 509 µM (≈ 282 µg/mL)
- microsomal CLint at 0.5 µM [8]: 4 µL/min/mg
- chromatographic logD [13]: 1.69
- inhibition at 50 µM [14]: 73%
- microsomal CLint at 0.5 µM [17]: < 2 µL/min/mg

Compound: Cc1nc(-c2onc(C)c2NC(=O)O[C@H](C)c2ccccc2)ccc1NC(=O)[C@H]1CCCC[C@@H]1C(=O)O
- IC50 [1]: 100 µM
- AUClast [2]: 57300 h/ng/mL
- Vd [3]: 0.2 L/kg
- fAUClast [4]: 7686 h/ng/mL
- Tlast [5]: 8 h
- solubility [6]: 641 µM (≈ 325 µg/mL)
- half-life [7]: 109 min
- microsomal CLint at 0.5 µM [8]: 3.5 µL/min/mg
- Cmax [9]: 89.7 µg/mL
- clearance [10]: 1.75 mL/min/kg
- Tlast [11]: 24 h
- ED50 [22]: 0.1 mg/kg
- AUClast [12]: 315000 h/ng/mL
- chromatographic logD [13]: 1.27
- inhibition at 50 µM [14]: 28%
- IC50 [15]: 12.6 nM
- Cmax [16]: 17700 ng/mL
- microsomal CLint at 0.5 µM [17]: 2.3 µL/min/mg
- fAUClast [18]: 3967 h/ng/mL
- fCmax [19]: 1225 ng/mL
- bioavailability [20]: 100%
- Drug uptake [24]: Active
- fCmax [21]: 2189 ng/mL

Compound: Cc1nc(-c2onc(C)c2NC(=O)O[C@H](C)c2ccccn2)ccc1NC(=O)[C@H]1CCCC[C@@H]1C(=O)O
- microsomal CLint at 0.5 µM [8]: 6 µL/min/mg
- inhibition at 50 µM [14]: 0%
- microsomal CLint at 0.5 µM [17]: 0.3 µL/min/mg

Compound: Cc1nc(-c2ncccc2NC(=O)O[C@H](C)c2ccccc2Cl)ccc1NC(=O)[C@H]1CCCC[C@@H]1C(=O)O
- inhibition (INH) [23]: Not_active

Compound: Cc1noc(-c2ccc(NC(=O)[C@H]3CCCC[C@@H]3C(=O)O)c(F)n2)c1NC(=O)O[C@H](C)c1ccccc1Cl
- solubility [6]: 555 µM (≈ 302 µg/mL)
- microsomal CLint at 0.5 µM [8]: 5.4 µL/min/mg
- chromatographic logD [13]: 1.5
- inhibition at 50 µM [14]: 50%
- microsomal CLint at 0.5 µM [17]: 1 µL/min/mg

Compound: Cc1nc(-c2snc(C)c2NC(=O)O[C@H](C)c2ccccc2Cl)ccc1NC(=O)[C@H]1CCCC[C@@H]1C(=O)O
- solubility [6]: 503 µM (≈ 280 µg/mL)
- microsomal CLint at 0.5 µM [8]: 7.6 µL/min/mg
- chromatographic logD [13]: 1.55
- inhibition at 50 µM [14]: 64%
- microsomal CLint at 0.5 µM [17]: 7.6 µL/min/mg

Compound: Cc1nc(-c2onc(C)c2Nc2cncc(OC3CC3)n2)ccc1NC(=O)[C@H]1CCCC[C@@H]1C(=O)O
- inhibition (INH) [23]: Not_active

Compound: CCNc1cncc(Nc2c(C)noc2-c2ccc(NC(=O)[C@H]3CCCC[C@@H]3C(=O)O)c(C)n2)n1
- inhibition (INH) [23]: Not_active

Compound: Cc1noc(-c2ccc(NC(=O)[C@H]3CCCC[C@@H]3C(=O)O)cc2)c1NC(=O)O[C@H](C)c1ccccc1Cl
- microsomal CLint at 0.5 µM [8]: 19.5 µL/min/mg
- chromatographic logD [13]: 1.39
- inhibition at 50 µM [14]: 72%
- microsomal CLint at 0.5 µM [17]: 2.84 µL/min/mg

Compound: Cc1noc(-c2ccc(NC(=O)C3CCCC(C(=O)O)C3)cc2)c1NC(=O)O[C@H](C)c1ccccc1Cl (single isomer, unassigned; diastereomer 1)
- inhibition (INH) [23]: Not_active
